In patent publication US10131652B2, “Pyrimidinyloxy benzene derivatives as herbicides” (E. I. DU PONT DE NEMOURS AND COMPANY, priority 2014, dated 2018):

Tests used:
Assay type in all cases: in vivo
[1] = system: Italian ryegrass (Lolium multiflorum); test: Test B pre-/postemergence plant response
Summary of the method: (§1)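 Visual injury rating, 0 (no effect) to 100 (complete control), vs untreated controls after ~10 d greenhouse. Pre: directed soil spray after planting in loam/sand. Post: plants 2–10 cm, 1–2 leaf stage. Compound in non-phytotoxic solvent plus surfactant.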

[2] = system: barnyardgrass (Echinochloa crus-galli); test: Test B pre-/postemergence plant response
Summary of the method: as §1

corn (Zea mays) = test: Test B pre-/postemergence plant response
Summary of the method: as §1

[3] = system: giant foxtail (Setaria faberii); test: Test B pre-/postemergence plant response
Summary of the method: as §1

kochia (Kochia scoparia) = test: Test B pre-/postemergence plant response
Summary of the method: as §1

[4] = system: pigweed (Amaranthus retroflexus); test: Test B pre-/postemergence plant response
Summary of the method: as §1

[5] = system: ragweed (common ragweed, Ambrosia elatior); test: Test B pre-/postemergence plant response
Summary of the method: as §1

[6] = system: wheat (Triticum aestivum); test: Test B pre-/postemergence plant response
Summary of the method: as §1

[7] = system: blackgrass (Alopecurus myosuroides); test: Test B postemergence plant response
Summary of the method: (§2)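 Plants grown in pots of loam soil–sand blend were sprayed postemergence with formulated test chemicals at 2 to 10 cm height, one- to two-leaf stage. After about 10 days in a greenhouse, injury was visually rated against untreated controls on a 0 to 100 scale (0 no effect, 100 complete control).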

[8] = system: galium (catchweed bedstraw, Galium aparine); test: Test B postemergence plant response
Summary of the method: as §2

[9] = system: barnyardgrass (Echinochloa crus-galli); test: Test C flooded paddy test plant response; details: Flood, 250 g ai/ha; scale of 0 to 100 where 0 is no effect and 100 is complete control; 13 to 15 days
Summary of the method: (§3)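 Plants grown to the 2-leaf stage; pots flooded to 3 cm above soil, test compounds applied directly to paddy water, depth maintained throughout. Greenhouse for 13 to 15 days, then visual rating versus controls on a 0–100 scale (0 no effect, 100 complete control).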

[10] = system: ducksalad (Heteranthera limosa); test: Test C flooded paddy test plant response; details: Flood, 250 g ai/ha; scale of 0 to 100 where 0 is no effect and 100 is complete control; 13 to 15 days
Summary of the method: as §3

rice (Oryza sativa) = test: Test C flooded paddy test plant response; details: Flood, 250 g ai/ha; scale of 0 to 100 where 0 is no effect and 100 is complete control; 13 to 15 days
Summary of the method: as §3

[11] = system: small-flower umbrella sedge (Cyperus difformis); test: Test C flooded paddy test plant response; details: Flood, 250 g ai/ha; scale of 0 to 100 where 0 is no effect and 100 is complete control; 13 to 15 days
Summary of the method: as §3

[12] = 31 g ai/ha, Preemergence, 0 to 100 scale where 0 is no effect and 100 is complete control
[13] = 125 g ai/ha, postemergence, 0 to 100 scale, 0 no effect, 100 complete control
[14] = Postemergence, 31 g ai/ha, 0 to 100 scale (0 no effect, 100 complete control)
[15] = Preemergence, 125 g ai/ha, 0 to 100 scale (0 no effect, 100 complete control)
[16] = Postemergence, 500 g ai/ha, 0 to 100 scale (0 no effect, 100 complete control)
[17] = Preemergence, 500 g ai/ha, 0 to 100 scale where 0 is no effect and 100 is complete control
[18] = 31 g ai/ha, Postemergence, 0 to 100 scale, 0 no effect, 100 complete control
[19] = Preemergence, 31 g ai/ha, 0 to 100 scale (0 no effect, 100 complete control)
[20] = Preemergence, 125 g ai/ha, 0 to 100 scale where 0 is no effect and 100 is complete control

COc1ccnc(-c2ccccc2Oc2ncc(Cl)cn2)c1 [Compound 219]
0: Plant response rating, Ryegrass, Italian [1, 12] | Plant response rating, Ryegrass, Italian [1, 13] | Plant response rating, Ryegrass, Italian [1, 14] | Ryegrass, Italian plant response rating [1, 15] | Plant response rating, Barnyardgrass [2, 12] | Plant response rating, Barnyardgrass [2, 13] | Plant response rating, Barnyardgrass [2, 14] | Barnyardgrass plant response rating [2, 15] | Plant response rating, Corn (corn (Zea mays); [13]) | Plant response rating, Corn (corn (Zea mays); [14]) | Plant response rating, Foxtail, Giant [3, 12] | Plant response rating, Foxtail, Giant [3, 13] | Plant response rating, Foxtail, Giant [3, 14] | Foxtail, Giant plant response rating [3, 15] | Plant response rating, Kochia (kochia (Kochia scoparia); [12]) | Plant response rating, Kochia (kochia (Kochia scoparia); [13]) | Plant response rating, Kochia (kochia (Kochia scoparia); [14]) | Kochia plant response rating (kochia (Kochia scoparia); [15]) | Plant response rating, Pigweed [4, 12] | Pigweed plant response rating [4, 15] | Plant response rating, Ragweed [5, 12] | Ragweed plant response rating [5, 15] | Plant response rating, Wheat [6, 13] | Plant response rating, Wheat [6, 14] | Plant response rating, Blackgrass [7, 13] | Plant response rating, Blackgrass [7, 14] | Barnyardgrass plant response rating [9] | Ducksalad plant response rating [10] | Rice plant response rating (rice (Oryza sativa)) | Sedge, Umbrella plant response rating [11]
20: Plant response rating, Ragweed [5, 14] | Plant response rating, Galium [8, 14]
30: Plant response rating, Ragweed [5, 13] | Plant response rating, Galium [8, 13]
10: Plant response rating, Pigweed [4, 13] | Plant response rating, Pigweed [4, 14]

FC(F)(F)c1csc(-c2ccccc2Oc2ncc(Cl)cn2)n1 [Compound 137]
30: Plant response rating, Pigweed [4, 13]
90: Plant response rating, Pigweed [4, 16]
60: Plant response rating, Kochia (kochia (Kochia scoparia); [16])
20: Plant response rating, Corn (corn (Zea mays); [16]) | Plant response rating, Foxtail, Giant [3, 16] | Plant response rating, Pigweed [4, 17] | Plant response rating, Galium [8, 16] | Ducksalad plant response rating [10]
0: Plant response rating, Ryegrass, Italian [1, 13] | Plant response rating, Ryegrass, Italian [1, 16] | Ryegrass, Italian plant response rating [1, 15] | Plant response rating, Ryegrass, Italian [1, 17] | Plant response rating, Barnyardgrass [2, 13] | Barnyardgrass plant response rating [2, 15] | Plant response rating, Corn (corn (Zea mays); [13]) | Plant response rating, Foxtail, Giant [3, 13] | Foxtail, Giant plant response rating [3, 15] | Plant response rating, Foxtail, Giant [3, 17] | Plant response rating, Kochia (kochia (Kochia scoparia); [13]) | Kochia plant response rating (kochia (Kochia scoparia); [15]) | Pigweed plant response rating [4, 15] | Plant response rating, Ragweed [5, 13] | Plant response rating, Ragweed [5, 16] | Ragweed plant response rating [5, 15] | Plant response rating, Ragweed [5, 17] | Plant response rating, Wheat [6, 13] | Plant response rating, Wheat [6, 16] | Plant response rating, Blackgrass [7, 13] | Plant response rating, Blackgrass [7, 16] | Plant response rating, Galium [8, 13] | Barnyardgrass plant response rating [9] | Rice plant response rating (rice (Oryza sativa)) | Sedge, Umbrella plant response rating [11]
10: Plant response rating, Barnyardgrass [2, 16] | Plant response rating, Barnyardgrass [2, 17] | Plant response rating, Kochia (kochia (Kochia scoparia); [17])

CC(C)n1nc(C(F)(F)F)cc1-c1c(C#N)cccc1Oc1ncc(Cl)cn1 [Compound 90]
10: Plant response rating, Kochia (kochia (Kochia scoparia); [13]) | Plant response rating, Pigweed [4, 13]
30: Plant response rating, Galium [8, 13]
20: Plant response rating, Pigweed [4, 20]
0: Plant response rating, Ryegrass, Italian [1, 18] | Plant response rating, Ryegrass, Italian [1, 13] | Ryegrass, Italian plant response rating [1, 19] | Plant response rating, Ryegrass, Italian [1, 20] | Plant response rating, Barnyardgrass [2, 18] | Plant response rating, Barnyardgrass [2, 13] | Barnyardgrass plant response rating [2, 19] | Plant response rating, Barnyardgrass [2, 20] | Plant response rating, Corn (corn (Zea mays); [18]) | Plant response rating, Corn (corn (Zea mays); [13]) | Plant response rating, Foxtail, Giant [3, 18] | Plant response rating, Foxtail, Giant [3, 13] | Foxtail, Giant plant response rating [3, 19] | Plant response rating, Foxtail, Giant [3, 20] | Plant response rating, Kochia (kochia (Kochia scoparia); [18]) | Kochia plant response rating (kochia (Kochia scoparia); [19]) | Plant response rating, Kochia (kochia (Kochia scoparia); [20]) | Plant response rating, Pigweed [4, 18] | Pigweed plant response rating [4, 19] | Plant response rating, Ragweed [5, 18] | Plant response rating, Ragweed [5, 13] | Ragweed plant response rating [5, 19] | Plant response rating, Ragweed [5, 20] | Plant response rating, Wheat [6, 18] | Plant response rating, Wheat [6, 13] | Plant response rating, Blackgrass [7, 18] | Plant response rating, Blackgrass [7, 13] | Plant response rating, Galium [8, 18] | Barnyardgrass plant response rating [9] | Ducksalad plant response rating [10] | Rice plant response rating (rice (Oryza sativa)) | Sedge, Umbrella plant response rating [11]

Cn1nnnc1-c1ccccc1Oc1ncc(Br)cn1 [Compound 49]
20: Plant response rating, Foxtail, Giant [3, 17] | Plant response rating, Pigweed [4, 20] | Plant response rating, Wheat [6, 16] | Plant response rating, Galium [8, 13]
30: Plant response rating, Kochia (kochia (Kochia scoparia); [13]) | Plant response rating, Kochia (kochia (Kochia scoparia); [16]) | Plant response rating, Pigweed [4, 16] | Plant response rating, Pigweed [4, 17] | Plant response rating, Ragweed [5, 13] | Plant response rating, Ragweed [5, 16]
10: Plant response rating, Barnyardgrass [2, 16] | Plant response rating, Corn (corn (Zea mays); [16]) | Plant response rating, Foxtail, Giant [3, 16] | Plant response rating, Pigweed [4, 13] | Plant response rating, Wheat [6, 13] | Plant response rating, Blackgrass [7, 16]
0: Plant response rating, Ryegrass, Italian [1, 13] | Plant response rating, Ryegrass, Italian [1, 16] | Plant response rating, Ryegrass, Italian [1, 20] | Plant response rating, Ryegrass, Italian [1, 17] | Plant response rating, Barnyardgrass [2, 13] | Plant response rating, Barnyardgrass [2, 20] | Plant response rating, Barnyardgrass [2, 17] | Plant response rating, Corn (corn (Zea mays); [13]) | Plant response rating, Foxtail, Giant [3, 13] | Plant response rating, Foxtail, Giant [3, 20] | Plant response rating, Kochia (kochia (Kochia scoparia); [20]) | Plant response rating, Ragweed [5, 20] | Plant response rating, Ragweed [5, 17] | Plant response rating, Blackgrass [7, 13] | Barnyardgrass plant response rating [9] | Ducksalad plant response rating [10] | Rice plant response rating (rice (Oryza sativa)) | Sedge, Umbrella plant response rating [11]
60: Plant response rating, Galium [8, 16]
70: Plant response rating, Kochia (kochia (Kochia scoparia); [17])
